Converted amounts (≈) assume the structure as drawn.

What all share (assay type): functional
Test [1] can be described thus: Cytotoxicity against human NCI60 cells.
A further test concerns Enterococcus faecium. As to the kind of experiment: Antibacterial activity against vancomycin-resistant Enterococcus faecium.
For a further test, the system named is Staphylococcus aureus. As to the kind of experiment: Antibacterial activity against methicillin-resistant Staphylococcus aureus.

One may read the GI50 as the concentration at which growth is held to half of that of the control. Read a high GI50 as less potent growth inhibition. As usually defined, the MIC is the least concentration at which growth counts as inhibited. Higher therefore signals weaker potency. On to `COc1c(Cl)c(C)c(Cl)c(O)c1C(=O)c1c(C=O)c(O)cc(O)c1CC=C(C)C` [PESTALONE], for which growth in test [1] was halved (GI50) at 6 µM. In addition, the figures for the minimum inhibitory concentration (MIC) with Enterococcus faecium and with Staphylococcus aureus were 0.078 µg/mL (≈ 0.178 µM) and 0.037 µg/mL (≈ 0.0842 µM), respectively.

The values are drawn from ChEMBL document CHEMBL1156374, “Pestalone, a new antibiotic produced by a marine fungus in response to bacterial challenge” (2001).
